{
  "source": "patent US20250059139A1",
  "about": "“COMPOUNDS FOR TREATMENT OF CANCER” (THE JOHNS HOPKINS UNIVERSITY, priority 2021, published 2025)",
  "key": {"[1]": {"test_system": "human prostate cancer cell lines", "assay": "In vitro growth of human prostate cancer cell lines", "type": "cell-based", "settings": "CWR22Rv1, 3 of the 4 lines (FIGS. 48A-48C: BCap-1, LgCap-1, CWR-22Rv1)", "from_the_text": "Prostate Cancer Models. The source, history, and characteristics of the human prostate cancer cell lines and PDXs used, as well as cell culture conditions for their in vitro maintenance and the in vivo protocol for xenograft growth in triple immune-deficient NSG (i.e. NOD.Cg-PrkdcScidIl2rgtmlWji/Szj), adult (>8 week old) male mice obtained from the Sidney Kimmel Comprehensive Cancer Center (SKCCC) Animal Core Facility are described previously (Isaacs 2013; Brennen et al. JCI Insight. 2021, 6(8):e146827; Zhu et al. Oncogene 2020, 39(45): 6935-6949). […] In vitro growth curves were determined as described (Isaacs 2013). In vivo growth response to oral daily TasQ (10 mg/kg/d) of TRAMP-C2 mouse prostate cancers was evaluated in C57BL/6J syngeneic wild type vs. NOX-2 vs. iNOS null male mice obtained from Jackson Laboratory (Bar Harbor, ME). Growth response to oral daily TasQ (10 mg/kg/d) of TRAMP-C2 and B6CaP mouse prostate cancers was also evaluated in S100A9 null C57BL′6J male mice obtained from Dmitry Gabrilovich (Wistar Institute). […] In vitro growth curves were determined as described (Isaacs 2013). Growth response to daily oral TasQ vs. ESATA-20 (both at 10 mg/kg/d) of Myc-CaP-CR mouse prostate cancer was evaluated in syngeneic FVB/NJ castrate male mice from Jackson Laboratory. […]"}, "CWR22-RH PDXs": {"test_system": "CWR22-RH PDXs", "assay": "RNA sequencing of in vivo growing CWR22-RH PDXs in castrate hosts", "parameters": "species or system human", "settings": "TasQ 10 mg/kg/d orally vs. vehicle control", "experimental": "RNA Sequencing Analysis of In vivo Growing Xenografts. This was performed as described previously (Brennen 2021; Zhu 2020) with read counts normalized per kilo base-pair gene length and per million reads library size (RPKM).\nRNAseq analysis was performed on CWR22-RH PDX tissue growing in the compromised hypoxic TME of castrated hosts with or without daily oral TasQ (10 mg/kg/d). Such dosing produces optimal CWR22-RH growth inhibition (FIG. 1) consistent with downregulation of the expression of proliferation-associated target genes in addition to the AR and its target genes (Table 1A). In addition, such daily TasQ treatment lowers HIF-1α protein in tumors by >50% (Olsson 2010) suppressing HIF1-dependent cell survival target genes (Table 1B). […] As predicted at this drug level, elevated expression of AHR and a series of its target genes is observed (Table 1C)."}},
  "data": [
    {"smiles": "COc1cccc2c1c(O)c(C(=O)N(c1ccc(C(F)(F)F)cc1)C1CCCCC1)c(=O)n2C", "note": "[ESATA-20]", "values": [
      {"measurement": "IC50", "setting": "[1]", "value": "< 10", "unit": "µM"}
    ]},
    {"smiles": "COc1cccc2c1c(O)c(C(=O)N(C)c1ccc(C(F)(F)F)cc1)c(=O)n2C", "note": "[TasQ, Tasquinimod]", "values": [
      {"measurement": "AGR2, AHR Target Genes (Fold Increases by TasQ)", "setting": "CWR22-RH PDXs", "value": 5.5, "unit": "fold"},
      {"measurement": "AHR, AHR Target Genes (Fold Increases by TasQ)", "setting": "CWR22-RH PDXs", "value": 3.0, "unit": "fold"},
      {"measurement": "ALDOC, HIF-1α Target Genes (Fold Decrease by TasQ)", "setting": "CWR22-RH PDXs", "value": "−1.4", "unit": "fold"},
      {"measurement": "AR, AR Target Genes (Fold Decrease by TasQ)", "setting": "CWR22-RH PDXs", "value": "−2.0", "unit": "fold"},
      {"measurement": "BHLHE41, MEF-2 Target Genes (Fold Increase by TasQ)", "setting": "CWR22-RH PDXs", "value": 2.9, "unit": "fold"},
      {"measurement": "BNIP3, HIF-1α Target Genes (Fold Decrease by TasQ)", "setting": "CWR22-RH PDXs", "value": "−1.9", "unit": "fold"},
      {"measurement": "CA12, MEF-2 Target Genes (Fold Increase by TasQ)", "setting": "CWR22-RH PDXs", "value": 2.7, "unit": "fold"},
      {"measurement": "CAPN2, MEF-2 Target Genes (Fold Increase by TasQ)", "setting": "CWR22-RH PDXs", "value": 1.6, "unit": "fold"},
      {"measurement": "CDC6, Proliferation Target Genes (Fold Decrease by TasQ)", "setting": "CWR22-RH PDXs", "value": "−1.5", "unit": "fold"},
      {"measurement": "CDT1, Proliferation Target Genes (Fold Decrease by TasQ)", "setting": "CWR22-RH PDXs", "value": "−2.2", "unit": "fold"},
      {"measurement": "CEACAM1, MEF-2 Target Genes (Fold Increase by TasQ)", "setting": "CWR22-RH PDXs", "value": 1.8, "unit": "fold"},
      {"measurement": "CYP1B1, AHR Target Genes (Fold Increases by TasQ)", "setting": "CWR22-RH PDXs", "value": 10.0, "unit": "fold"},
      {"measurement": "DTYMK, Proliferation Target Genes (Fold Decrease by TasQ)", "setting": "CWR22-RH PDXs", "value": "−1.6", "unit": "fold"},
      {"measurement": "E2F1, Proliferation Target Genes (Fold Decrease by TasQ)", "setting": "CWR22-RH PDXs", "value": "−2.0", "unit": "fold"},
      {"measurement": "EDN1, MEF-2 Target Genes (Fold Increase by TasQ)", "setting": "CWR22-RH PDXs", "value": 15.0, "unit": "fold"},
      {"measurement": "GDF15, AHR Target Genes (Fold Increases by TasQ)", "setting": "CWR22-RH PDXs", "value": 2.3, "unit": "fold"},
      {"measurement": "HILPDA, HIF-1α Target Genes (Fold Decrease by TasQ)", "setting": "CWR22-RH PDXs", "value": "−1.7", "unit": "fold"},
      {"measurement": "IGF1, HIF-1α Target Genes (Fold Decrease by TasQ)", "setting": "CWR22-RH PDXs", "value": "−11.0", "unit": "fold"},
      {"measurement": "IGFBP2, HIF-1α Target Genes (Fold Decrease by TasQ)", "setting": "CWR22-RH PDXs", "value": "−1.8", "unit": "fold"},
      {"measurement": "IGFBP5, HIF-1α Target Genes (Fold Decrease by TasQ)", "setting": "CWR22-RH PDXs", "value": "−18.0", "unit": "fold"},
      {"measurement": "KLKP1, AR Target Genes (Fold Decrease by TasQ)", "setting": "CWR22-RH PDXs", "value": "−2.3", "unit": "fold"},
      {"measurement": "LDHA, HIF-1α Target Genes (Fold Decrease by TasQ)", "setting": "CWR22-RH PDXs", "value": "−1.5", "unit": "fold"},
      {"measurement": "LOX, HIF-1α Target Genes (Fold Decrease by TasQ)", "setting": "CWR22-RH PDXs", "value": "−4.0", "unit": "fold"},
      {"measurement": "MCM2, Proliferation Target Genes (Fold Decrease by TasQ)", "setting": "CWR22-RH PDXs", "value": "−1.9", "unit": "fold"},
      {"measurement": "MCM3, Proliferation Target Genes (Fold Decrease by TasQ)", "setting": "CWR22-RH PDXs", "value": "−1.6", "unit": "fold"},
      {"measurement": "MCM5, Proliferation Target Genes (Fold Decrease by TasQ)", "setting": "CWR22-RH PDXs", "value": "−2.0", "unit": "fold"},
      {"measurement": "MKI67, Proliferation Target Genes (Fold Decrease by TasQ)", "setting": "CWR22-RH PDXs", "value": "−1.7", "unit": "fold"},
      {"measurement": "NKX3.1, AR Target Genes (Fold Decrease by TasQ)", "setting": "CWR22-RH PDXs", "value": "−2.3", "unit": "fold"},
      {"measurement": "NQO1, AHR Target Genes (Fold Increases by TasQ)", "setting": "CWR22-RH PDXs", "value": 2.9, "unit": "fold"},
      {"measurement": "NR4A1, MEF-2 Target Genes (Fold Increase by TasQ)", "setting": "CWR22-RH PDXs", "value": 1.4, "unit": "fold"},
      {"measurement": "NR4A2, MEF-2 Target Genes (Fold Increase by TasQ)", "setting": "CWR22-RH PDXs", "value": 1.8, "unit": "fold"},
      {"measurement": "P4HA1, HIF-1α Target Genes (Fold Decrease by TasQ)", "setting": "CWR22-RH PDXs", "value": "−1.8", "unit": "fold"},
      {"measurement": "PDK1, HIF-1α Target Genes (Fold Decrease by TasQ)", "setting": "CWR22-RH PDXs", "value": "−1.7", "unit": "fold"},
      {"measurement": "PTN, HIF-1α Target Genes (Fold Decrease by TasQ)", "setting": "CWR22-RH PDXs", "value": "−6.1", "unit": "fold"},
      {"measurement": "S100P, MEF-2 Target Genes (Fold Increase by TasQ)", "setting": "CWR22-RH PDXs", "value": 5.7, "unit": "fold"},
      {"measurement": "SLC45A3, AR Target Genes (Fold Decrease by TasQ)", "setting": "CWR22-RH PDXs", "value": "−3.7", "unit": "fold"},
      {"measurement": "THB5, MEF-2 Target Genes (Fold Increase by TasQ)", "setting": "CWR22-RH PDXs", "value": 8.0, "unit": "fold"},
      {"measurement": "TIPARP, AHR Target Genes (Fold Increases by TasQ)", "setting": "CWR22-RH PDXs", "value": 3.4, "unit": "fold"},
      {"measurement": "TMPRSS2, AR Target Genes (Fold Decrease by TasQ)", "setting": "CWR22-RH PDXs", "value": "−1.9", "unit": "fold"},
      {"measurement": "TNC, HIF-1α Target Genes (Fold Decrease by TasQ)", "setting": "CWR22-RH PDXs", "value": "−2.5", "unit": "fold"},
      {"measurement": "TTR, HIF-1α Target Genes (Fold Decrease by TasQ)", "setting": "CWR22-RH PDXs", "value": "−3.8", "unit": "fold"},
      {"measurement": "VEGFB, HIF-1α Target Genes (Fold Decrease by TasQ)", "setting": "CWR22-RH PDXs", "value": "−1.5", "unit": "fold"}
    ]}
  ]
}
